Results: patent US9603364B2 (Dow AgroSciences LLC, priority 2013, dated 2017)

Assays:
Assay in all cases: General post-emergent herbicidal activity, foliar application
Type in all cases: in vivo
Zea mays L. (corn) = details: 336 h, scored after 14 days, read-out: % Visual Growth Reduction ZEAMX
In short: (§1)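 Compounds in acetone/DMSO (97:3) diluted into aqueous spray with isopropanol, Atplus 411F crop oil and Triton X-155; top rate plus 1/2×–1/16× serial rates applied to foliage, solvent blank as control. Greenhouse, sub-irrigated; visual injury versus untreated plants scored 0–100% (100 = complete kill) after 14 days.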

Oryza sativa L. (rice) = details: Oryza sativa, 336 h, scored after 14 days, read-out: % Visual Growth Reduction ORYSA
In short: as §1

[1] = test system: Amaranthus retroflexus L. (pigweed, redroot)
In short: (§2)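 Compounds in acetone/DMSO 97:3 were diluted into aqueous spray mix with isopropanol, crop oil concentrate and Triton X-155, then serially diluted to 1/2×–1/16× of the top rate and sprayed on foliage. Plants were kept in greenhouse with sub-irrigation. Injury was scored visually (0–100%) at 14 days; GR20/GR50/GR80 came from probit analysis.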

[2] = test system: Viola tricolor L. (pansy)
In short: as §2

[3] = test system: Chenopodium album L. (lambsquarters, common)
In short: as §2

[4] = test system: Echinochloa crus-galli (L.) Beauv. (barnyardgrass)
In short: as §2

[5] = test system: Euphorbia heterophylla L. (poinsettia, wild)
In short: as §2

[6] = test system: Helianthus annuus L. (sunflower, common)
In short: as §2

[7] = calculated by probit analysis, dose for 80% visual injury, may be extrapolated

**Q.** What does the source list for `Nc1c(F)c(CF)nc(C(=O)O)c1Cl` [Compound F36, 4-Amino-3-chloro-5-fluoro-6-(fluoromethyl)picolinic acid]?
**A.** plant injury at 35 g/ha (Zea mays L. (corn); 35 g ai/ha): 0%; plant injury at 70 g/ha (Zea mays L. (corn); 70 g ai/ha): 20%; plant injury at 140 g/ha (Zea mays L. (corn); 140 g ai/ha): 40%; plant injury at 280 g/ha (Zea mays L. (corn); 280 g ai/ha): 70%; plant injury at 35 g/ha (Oryza sativa L. (rice); 35 g ai/ha): 0%; plant injury at 70 g/ha (Oryza sativa L. (rice); 70 g ai/ha): 10%; plant injury at 140 g/ha (Oryza sativa L. (rice); 140 g ai/ha): 20%; plant injury at 280 g/ha (Oryza sativa L. (rice); 280 g ai/ha): 30%; pest or weed control at 35 g/ha ([1]; Amaranthus retroflexus, 336 h, 35 g ai/ha, foliar post-emergent, scored after 14 days, read-out: % Visual Growth Reduction AMARE): 100%; pest or weed control at 70 g/ha ([1]; Amaranthus retroflexus, 336 h, 70 g ai/ha, foliar post-emergent, scored after 14 days, read-out: % Visual Growth Reduction AMARE): 100%; pest or weed control at 140 g/ha ([1]; Amaranthus retroflexus, 336 h, 140 g ai/ha, foliar post-emergent, scored after 14 days, read-out: % Visual Growth Reduction AMARE): 100%; pest or weed control at 280 g/ha ([1]; Amaranthus retroflexus, 336 h, 280 g ai/ha, foliar post-emergent, scored after 14 days, read-out: % Visual Growth Reduction AMARE): 100%; GR80 Value AMARE [1, 7]: <17.5 g ai/ha; pest or weed control at 35 g/ha ([2]; Viola tricolor, 336 h, 35 g ai/ha, foliar post-emergent, scored after 14 days, read-out: % Visual Growth Reduction VIOTR): 10%; pest or weed control at 70 g/ha ([2]; Viola tricolor, 336 h, 70 g ai/ha, foliar post-emergent, scored after 14 days, read-out: % Visual Growth Reduction VIOTR): 20%; pest or weed control at 140 g/ha ([2]; Viola tricolor, 336 h, 140 g ai/ha, foliar post-emergent, scored after 14 days, read-out: % Visual Growth Reduction VIOTR): 80%; pest or weed control at 280 g/ha ([2]; Viola tricolor, 336 h, 280 g ai/ha, foliar post-emergent, scored after 14 days, read-out: % Visual Growth Reduction VIOTR): 75%; GR80 Value VIOTR [2, 7]: 246 g ai/ha; pest or weed control at 35 g/ha ([3]; Chenopodium album, 336 h, 35 g ai/ha, foliar post-emergent, scored after 14 days, read-out: % Visual Growth Reduction CHEAL): 80%; pest or weed control at 70 g/ha ([3]; Chenopodium album, 336 h, 70 g ai/ha, foliar post-emergent, scored after 14 days, read-out: % Visual Growth Reduction CHEAL): 100%; pest or weed control at 140 g/ha ([3]; Chenopodium album, 336 h, 140 g ai/ha, foliar post-emergent, scored after 14 days, read-out: % Visual Growth Reduction CHEAL): 100%; pest or weed control at 280 g/ha ([3]; Chenopodium album, 336 h, 280 g ai/ha, foliar post-emergent, scored after 14 days, read-out: % Visual Growth Reduction CHEAL): 100%; GR80 Value CHEAL [3, 7]: 36.1 g ai/ha; pest or weed control at 35 g/ha ([4]; Echinochloa crus-galli, 336 h, 35 g ai/ha, foliar post-emergent, scored after 14 days, read-out: % Visual Growth Reduction ECHCG): 50%; pest or weed control at 70 g/ha ([4]; Echinochloa crus-galli, 336 h, 70 g ai/ha, foliar post-emergent, scored after 14 days, read-out: % Visual Growth Reduction ECHCG): 50%; pest or weed control at 140 g/ha ([4]; Echinochloa crus-galli, 336 h, 140 g ai/ha, foliar post-emergent, scored after 14 days, read-out: % Visual Growth Reduction ECHCG): 80%; pest or weed control at 280 g/ha ([4]; Echinochloa crus-galli, 336 h, 280 g ai/ha, foliar post-emergent, scored after 14 days, read-out: % Visual Growth Reduction ECHCG): 95%; GR80 Value ECHCG [4, 7]: 132 g ai/ha; pest or weed control at 35 g/ha ([5]; Euphorbia heterophylla, 336 h, 35 g ai/ha, foliar post-emergent, scored after 14 days, read-out: % Visual Growth Reduction EPHHL): 100%; pest or weed control at 70 g/ha ([5]; Euphorbia heterophylla, 336 h, 70 g ai/ha, foliar post-emergent, scored after 14 days, read-out: % Visual Growth Reduction EPHHL): 100%; pest or weed control at 140 g/ha ([5]; Euphorbia heterophylla, 336 h, 140 g ai/ha, foliar post-emergent, scored after 14 days, read-out: % Visual Growth Reduction EPHHL): 100%; pest or weed control at 280 g/ha ([5]; Euphorbia heterophylla, 336 h, 280 g ai/ha, foliar post-emergent, scored after 14 days, read-out: % Visual Growth Reduction EPHHL): 100%; GR80 Value EPHHL [5, 7]: <17.5 g ai/ha; pest or weed control at 35 g/ha ([6]; Helianthus annuus, 336 h, 35 g ai/ha, foliar post-emergent, scored after 14 days, read-out: % Visual Growth Reduction HELAN): 70%; pest or weed control at 70 g/ha ([6]; Helianthus annuus, 336 h, 70 g ai/ha, foliar post-emergent, scored after 14 days, read-out: % Visual Growth Reduction HELAN): 80%; pest or weed control at 140 g/ha ([6]; Helianthus annuus, 336 h, 140 g ai/ha, foliar post-emergent, scored after 14 days, read-out: % Visual Growth Reduction HELAN): 85%; pest or weed control at 280 g/ha ([6]; Helianthus annuus, 336 h, 280 g ai/ha, foliar post-emergent, scored after 14 days, read-out: % Visual Growth Reduction HELAN): 90%; GR80 Value HELAN [6, 7]: 70 g ai/ha

**Q.** Which results are given for `COC(=O)c1nc(C(C)CF)c(F)c(N)c1Cl` (stereo not shown) [Compound F37, methyl 4-amino-3-chloro-5-fluoro-6-(1-fluoropropan-2-yl)picolinate]?
**A.** plant injury at 132 g/ha (Zea mays L. (corn); 132 g ai/ha): 0%; plant injury at 132 g/ha (Oryza sativa L. (rice); 132 g ai/ha): 0%; pest or weed control at 132 g/ha ([1]; Amaranthus retroflexus, 336 h, 132 g ai/ha, foliar post-emergent, scored after 14 days, read-out: % Visual Growth Reduction AMARE): 50%; pest or weed control at 132 g/ha ([2]; Viola tricolor, 336 h, 132 g ai/ha, foliar post-emergent, scored after 14 days, read-out: % Visual Growth Reduction VIOTR): 0%; pest or weed control at 132 g/ha ([3]; Chenopodium album, 336 h, 132 g ai/ha, foliar post-emergent, scored after 14 days, read-out: % Visual Growth Reduction CHEAL): 0%; pest or weed control at 132 g/ha ([4]; Echinochloa crus-galli, 336 h, 132 g ai/ha, foliar post-emergent, scored after 14 days, read-out: % Visual Growth Reduction ECHCG): 0%; pest or weed control at 132 g/ha ([5]; Euphorbia heterophylla, 336 h, 132 g ai/ha, foliar post-emergent, scored after 14 days, read-out: % Visual Growth Reduction EPHHL): 100%; pest or weed control at 132 g/ha ([6]; Helianthus annuus, 336 h, 132 g ai/ha, foliar post-emergent, scored after 14 days, read-out: % Visual Growth Reduction HELAN): 80%
